ChEMBL document CHEMBL5042558, “Selective Macrocyclic Inhibitors of DYRK1A/B” (ACS Med Chem Lett, 2022)
Blank lines part the entries; values can stand above or below the molecule they belong to.

Columns and labels:
CAL-27 [1] = test: Induction of apoptosis in human CAL-27 cells assessed as BCL-xL level at 10 uM after 24 hrs by Immunoblot analysis relative to control; type: functional
CAL-27 [2] = test: Induction of apoptosis in human CAL-27 cells assessed as PARP level at 10 uM after 24 hrs by Immunoblot analysis relative to control; type: functional
CAL-27 [3] = test: Induction of apoptosis in human CAL-27 cells assessed as PARP level at 1 uM after 24 hrs by Immunoblot analysis relative to control; type: functional
CAL-27 [4] = test: Induction of apoptosis in human CAL-27 cells assessed as increase in cleaved-PARP level at 10 uM after 24 hrs by Immunoblot analysis relative to control; type: functional
CAL-27 [5] = test: Induction of apoptosis in human CAL-27 cells assessed as increase in cleaved-PARP level at 1 uM after 24 hrs by Immunoblot analysis relative to control; type: functional
CAL-27 [6] = test: Induction of apoptosis in human CAL-27 cells assessed as BCL-xL level at 1 uM after 24 hrs by Immunoblot analysis relative to control; type: functional
[7] = Clearance in C57BL/6 mouse at 2 mg/kg, iv measured upto 8 hrs by LC-MS/MS analysis; type: ADME, organism-based; settings: in vivo
[8] = Cmax in C57BL/6 mouse at 10 mg/kg, po measured upto 8 hrs by LC-MS/MS analysis; type: ADME, organism-based; set-up: route oral, dose 10 mg/kg, time <=8; settings: in vivo
[9] = Oral bioavailability in C57BL/6 mouse at 10 mg/kg measured upto 8 hrs by LC-MS/MS analysis; type: ADME, organism-based; settings: C57BL/6, mouse, in vivo
[10] = Clearance in C57BL/6 mouse at 10 mg/kg, po measured upto 8 hrs by LC-MS/MS analysis; type: ADME, organism-based; settings: in vivo
CAL-27 [11] = test: Induction of apoptosis in human CAL-27 cells assessed as decrease in FOXO3A phosphorylation at serine 253 residue at 0.5 uM after 24 hrs by Immunoblot analysis relative to control; type: functional; set-up: scale not given: the % may be the effect or the level left
[12] = biological target: Serine/threonine-protein kinase Sgk1 (Homo sapiens, UniProt O00141); test: Inhibition of SGK (unknown origin) at 1 uM by kinome scan method
[13] = biological target: Mitogen-activated protein kinase 8 (Homo sapiens, UniProt P45983); test: Inhibition of JNK1 (unknown origin) in human CAL-27 cells measured after 6 hrs by select screen kinase assay; type: cell-based
Misshapen-like kinase 1 = Misshapen-like kinase 1 (Homo sapiens, UniProt Q8N4C8); test: Inhibition of MINK1 (unknown origin) at 1 uM by kinome scan method
Misshapen-like kinase 1, sequence (Q8N4C8 whole entry): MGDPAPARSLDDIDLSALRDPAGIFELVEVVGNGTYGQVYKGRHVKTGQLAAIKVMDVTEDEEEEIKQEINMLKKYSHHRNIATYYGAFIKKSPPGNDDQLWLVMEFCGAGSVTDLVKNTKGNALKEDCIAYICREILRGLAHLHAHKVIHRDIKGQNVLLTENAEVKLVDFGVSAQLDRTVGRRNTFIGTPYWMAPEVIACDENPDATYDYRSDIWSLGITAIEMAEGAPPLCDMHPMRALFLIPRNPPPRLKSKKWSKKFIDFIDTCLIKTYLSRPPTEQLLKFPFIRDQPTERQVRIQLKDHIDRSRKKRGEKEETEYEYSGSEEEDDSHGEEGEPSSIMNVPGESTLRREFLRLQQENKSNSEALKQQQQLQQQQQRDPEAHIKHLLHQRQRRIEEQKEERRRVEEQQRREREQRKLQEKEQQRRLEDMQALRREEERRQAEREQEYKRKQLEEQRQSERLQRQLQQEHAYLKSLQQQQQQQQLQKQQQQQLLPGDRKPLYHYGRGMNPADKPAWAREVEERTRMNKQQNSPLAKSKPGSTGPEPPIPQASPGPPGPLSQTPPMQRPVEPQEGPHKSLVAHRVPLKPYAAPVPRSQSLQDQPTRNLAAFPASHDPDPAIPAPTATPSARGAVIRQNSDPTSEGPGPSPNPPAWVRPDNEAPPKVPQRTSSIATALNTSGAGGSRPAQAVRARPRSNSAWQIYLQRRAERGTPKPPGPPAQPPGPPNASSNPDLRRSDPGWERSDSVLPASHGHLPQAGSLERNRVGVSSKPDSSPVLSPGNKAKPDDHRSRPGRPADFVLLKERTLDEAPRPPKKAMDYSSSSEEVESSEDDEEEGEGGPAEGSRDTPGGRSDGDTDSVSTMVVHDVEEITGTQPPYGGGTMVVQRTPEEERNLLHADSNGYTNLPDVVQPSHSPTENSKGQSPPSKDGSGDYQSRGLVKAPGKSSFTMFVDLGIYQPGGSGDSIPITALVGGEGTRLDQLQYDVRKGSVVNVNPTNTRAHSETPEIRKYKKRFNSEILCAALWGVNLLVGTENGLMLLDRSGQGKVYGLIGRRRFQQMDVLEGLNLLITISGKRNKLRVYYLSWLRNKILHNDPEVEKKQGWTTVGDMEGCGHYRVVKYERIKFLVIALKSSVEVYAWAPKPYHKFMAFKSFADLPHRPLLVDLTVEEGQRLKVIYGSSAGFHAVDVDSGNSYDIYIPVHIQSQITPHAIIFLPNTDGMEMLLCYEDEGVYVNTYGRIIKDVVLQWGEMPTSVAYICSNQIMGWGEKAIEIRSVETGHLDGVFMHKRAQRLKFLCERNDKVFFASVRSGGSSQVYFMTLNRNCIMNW

CAL-27 [14] = test: Induction of apoptosis in human CAL-27 cells assessed as decrease in FOXO3A phosphorylation at serine 253 residue at 1 uM after 24 hrs by Immunoblot analysis relative to control; type: functional; set-up: scale not given: the % may be the effect or the level left
HEK-293T = test: Antiproliferative activity against human HEK293T cells assessed as reduction in cell viability at 10 uM measured after 72 hrs by Celltiter-Glo luminescent assay; type: toxicity, cell-based
[15] = biological target: Dual specificity mitogen-activated protein kinase kinase 4 (Homo sapiens, UniProt P45985); test: Inhibition of MEK4 (unknown origin) at 1 uM by kinome scan method
[16] = Cmax in C57BL/6 mouse at 2 mg/kg, iv measured upto 8 hrs by LC-MS/MS analysis; type: ADME, organism-based; set-up: route intravenous, dose 2 mg/kg, time <=8; settings: in vivo
CAL-27 [17] = test: Induction of apoptosis in human CAL-27 cells assessed as decrease in FOXO3A phosphorylation at serine 253 residue at 5 uM after 24 hrs by Immunoblot analysis relative to control; type: functional; set-up: scale not given: the % may be the effect or the level left
[18] = biological target: Ribosomal protein S6 kinase alpha-6 (Homo sapiens, UniProt Q9UK32); test: Inhibition of RSK4 (unknown origin) at 1 uM by kinome scan method
Ribosomal protein S6 kinase alpha-6, sequence (Q9UK32 whole entry): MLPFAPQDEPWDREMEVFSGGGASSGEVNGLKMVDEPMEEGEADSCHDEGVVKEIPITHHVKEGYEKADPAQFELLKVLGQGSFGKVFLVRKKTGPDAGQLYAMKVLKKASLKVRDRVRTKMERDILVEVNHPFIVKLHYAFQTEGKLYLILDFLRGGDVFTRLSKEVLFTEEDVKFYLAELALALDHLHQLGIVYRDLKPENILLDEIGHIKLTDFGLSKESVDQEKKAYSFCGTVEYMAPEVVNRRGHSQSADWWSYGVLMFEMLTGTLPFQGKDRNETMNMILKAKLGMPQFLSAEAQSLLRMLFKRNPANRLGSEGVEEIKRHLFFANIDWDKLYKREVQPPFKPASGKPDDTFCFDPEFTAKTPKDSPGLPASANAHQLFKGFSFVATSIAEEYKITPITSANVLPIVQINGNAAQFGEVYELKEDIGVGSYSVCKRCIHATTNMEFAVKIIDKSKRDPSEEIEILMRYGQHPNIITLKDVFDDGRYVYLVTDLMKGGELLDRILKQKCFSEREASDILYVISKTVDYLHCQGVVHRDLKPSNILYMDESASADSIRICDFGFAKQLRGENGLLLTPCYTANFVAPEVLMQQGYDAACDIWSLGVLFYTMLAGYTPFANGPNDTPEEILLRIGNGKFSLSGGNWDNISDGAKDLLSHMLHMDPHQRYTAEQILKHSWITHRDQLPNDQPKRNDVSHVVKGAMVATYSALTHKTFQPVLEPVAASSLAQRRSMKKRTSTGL

[19] = biological target: Ribosomal protein S6 kinase alpha-2 (Homo sapiens, UniProt Q15349); test: Inhibition of RSK3 (unknown origin) in human CAL-27 cells measured after 6 hrs by select screen kinase assay; type: cell-based
Ribosomal protein S6 kinase alpha-2, sequence (Q15349 whole entry): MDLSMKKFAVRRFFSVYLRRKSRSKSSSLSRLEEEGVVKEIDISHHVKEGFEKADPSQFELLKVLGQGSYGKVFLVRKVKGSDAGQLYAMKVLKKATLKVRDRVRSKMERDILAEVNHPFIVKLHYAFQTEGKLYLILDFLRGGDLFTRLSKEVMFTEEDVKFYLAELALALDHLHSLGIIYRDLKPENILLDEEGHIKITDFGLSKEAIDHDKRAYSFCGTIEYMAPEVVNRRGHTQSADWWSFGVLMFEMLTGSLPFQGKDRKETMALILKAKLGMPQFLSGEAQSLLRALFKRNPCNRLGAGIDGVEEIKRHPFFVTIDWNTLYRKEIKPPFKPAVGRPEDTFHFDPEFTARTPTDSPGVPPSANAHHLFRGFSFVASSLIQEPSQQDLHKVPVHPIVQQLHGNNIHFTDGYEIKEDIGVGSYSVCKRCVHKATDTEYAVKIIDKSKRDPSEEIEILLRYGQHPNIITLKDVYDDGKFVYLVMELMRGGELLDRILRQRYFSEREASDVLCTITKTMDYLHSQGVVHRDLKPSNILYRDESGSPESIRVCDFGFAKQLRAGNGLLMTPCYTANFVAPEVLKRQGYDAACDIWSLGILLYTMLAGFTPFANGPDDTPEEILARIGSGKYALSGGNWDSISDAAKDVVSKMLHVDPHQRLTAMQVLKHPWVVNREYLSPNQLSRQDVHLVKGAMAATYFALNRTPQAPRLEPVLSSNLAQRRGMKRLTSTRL

CAL-27 [20] = test: Induction of apoptosis in human CAL-27 cells assessed as decrease in FOXO3A phosphorylation at serine 253 residue at 10 uM after 24 hrs by Immunoblot analysis relative to control; type: functional; set-up: scale not given: the % may be the effect or the level left
Focal adhesion kinase 1 [21] = biological target: T1, Focal adhesion kinase 1 (Homo sapiens, UniProt Q05397); test: Inhibition of FAK (unknown origin) in human CAL-27 cells measured after 6 hrs by select screen kinase assay; type: cell-based
T1 sequence (Q05397 whole entry): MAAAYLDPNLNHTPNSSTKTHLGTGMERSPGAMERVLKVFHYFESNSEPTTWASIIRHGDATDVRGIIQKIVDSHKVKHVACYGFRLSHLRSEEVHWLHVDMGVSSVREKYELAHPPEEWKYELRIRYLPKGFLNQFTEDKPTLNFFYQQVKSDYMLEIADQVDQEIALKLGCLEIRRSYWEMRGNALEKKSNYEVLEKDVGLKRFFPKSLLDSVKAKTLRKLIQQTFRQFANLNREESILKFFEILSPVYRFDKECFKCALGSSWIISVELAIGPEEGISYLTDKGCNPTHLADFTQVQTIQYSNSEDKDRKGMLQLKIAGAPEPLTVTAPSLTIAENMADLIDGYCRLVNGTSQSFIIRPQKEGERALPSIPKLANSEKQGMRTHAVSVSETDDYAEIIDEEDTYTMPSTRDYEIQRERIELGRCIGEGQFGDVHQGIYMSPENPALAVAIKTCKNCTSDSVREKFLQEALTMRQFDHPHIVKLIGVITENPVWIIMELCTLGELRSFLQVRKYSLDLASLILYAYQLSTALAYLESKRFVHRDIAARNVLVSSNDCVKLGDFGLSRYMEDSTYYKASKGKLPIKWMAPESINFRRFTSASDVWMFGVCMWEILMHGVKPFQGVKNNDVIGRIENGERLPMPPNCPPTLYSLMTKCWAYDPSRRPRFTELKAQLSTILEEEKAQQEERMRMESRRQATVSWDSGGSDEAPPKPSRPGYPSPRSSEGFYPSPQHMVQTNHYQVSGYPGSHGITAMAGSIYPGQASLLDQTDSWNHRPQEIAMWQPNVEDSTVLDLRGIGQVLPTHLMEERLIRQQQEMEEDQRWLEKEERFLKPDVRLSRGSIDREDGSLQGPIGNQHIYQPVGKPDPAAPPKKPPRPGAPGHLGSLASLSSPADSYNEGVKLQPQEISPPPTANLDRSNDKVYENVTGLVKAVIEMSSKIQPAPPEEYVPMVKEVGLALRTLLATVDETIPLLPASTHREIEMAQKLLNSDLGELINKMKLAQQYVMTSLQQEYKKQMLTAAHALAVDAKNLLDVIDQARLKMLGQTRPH

[22] = biological target: T2, Ribosomal protein S6 kinase alpha-3 (Homo sapiens, UniProt P51812); test: Inhibition of RSK2 (unknown origin) in human CAL-27 cells measured after 6 hrs by select screen kinase assay; type: cell-based
T2 sequence (P51812 whole entry): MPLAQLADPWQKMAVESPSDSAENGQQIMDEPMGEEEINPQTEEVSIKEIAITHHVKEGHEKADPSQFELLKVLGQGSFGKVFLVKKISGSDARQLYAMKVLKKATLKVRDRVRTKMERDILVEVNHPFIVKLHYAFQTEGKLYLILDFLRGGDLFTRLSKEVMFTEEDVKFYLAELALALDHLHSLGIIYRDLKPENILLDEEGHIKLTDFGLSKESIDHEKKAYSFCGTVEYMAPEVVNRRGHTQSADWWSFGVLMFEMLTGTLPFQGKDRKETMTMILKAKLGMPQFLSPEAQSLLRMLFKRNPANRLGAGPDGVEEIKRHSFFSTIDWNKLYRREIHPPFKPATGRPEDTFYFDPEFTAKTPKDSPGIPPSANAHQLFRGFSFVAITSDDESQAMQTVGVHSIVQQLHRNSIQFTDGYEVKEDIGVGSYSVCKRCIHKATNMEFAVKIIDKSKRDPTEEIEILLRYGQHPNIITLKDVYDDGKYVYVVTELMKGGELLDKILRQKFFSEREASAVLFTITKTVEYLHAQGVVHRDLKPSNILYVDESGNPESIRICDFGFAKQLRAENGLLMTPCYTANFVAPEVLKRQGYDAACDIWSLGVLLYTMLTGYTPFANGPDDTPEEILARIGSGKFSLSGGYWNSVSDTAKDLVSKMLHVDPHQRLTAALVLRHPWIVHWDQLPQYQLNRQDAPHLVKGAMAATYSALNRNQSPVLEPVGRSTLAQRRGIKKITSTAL

[23] = AUC (0-infinity) in C57BL/6 mouse at 2 mg/kg, iv measured upto 8 hrs by LC-MS/MS analysis; type: ADME, organism-based; set-up: route intravenous, dose 2 mg/kg, time <=8; settings: in vivo
[24] = Half life in C57BL/6 mouse at 10 mg/kg, po measured upto 8 hrs by LC-MS/MS analysis; type: ADME, organism-based; settings: in vivo
[25] = biological target: Mitogen-activated protein kinase kinase kinase 19 (Homo sapiens, UniProt Q56UN5); test: Inhibition of YSK4 (unknown origin) at 1 uM by kinome scan method
[26] = biological target: Mitogen-activated protein kinase 9 (Homo sapiens, UniProt P45984); test: Inhibition of JNK2 (unknown origin) in human CAL-27 cells measured after 6 hrs by select screen kinase assay; type: cell-based
[27] = biological target: T2, Ribosomal protein S6 kinase alpha-3; test: Inhibition of RSK2 (unknown origin) at 1 uM by kinome scan method
[28] = Half life in C57BL/6 mouse at 2 mg/kg, iv measured upto 8 hrs by LC-MS/MS analysis; type: ADME, organism-based; settings: in vivo
[29] = biological target: Mitogen-activated protein kinase 10 (Homo sapiens, UniProt P53779); test: Inhibition of JNK3 (unknown origin) in human CAL-27 cells measured after 6 hrs by select screen kinase assay; type: cell-based
Mitogen-activated protein kinase 10, sequence (P53779 whole entry): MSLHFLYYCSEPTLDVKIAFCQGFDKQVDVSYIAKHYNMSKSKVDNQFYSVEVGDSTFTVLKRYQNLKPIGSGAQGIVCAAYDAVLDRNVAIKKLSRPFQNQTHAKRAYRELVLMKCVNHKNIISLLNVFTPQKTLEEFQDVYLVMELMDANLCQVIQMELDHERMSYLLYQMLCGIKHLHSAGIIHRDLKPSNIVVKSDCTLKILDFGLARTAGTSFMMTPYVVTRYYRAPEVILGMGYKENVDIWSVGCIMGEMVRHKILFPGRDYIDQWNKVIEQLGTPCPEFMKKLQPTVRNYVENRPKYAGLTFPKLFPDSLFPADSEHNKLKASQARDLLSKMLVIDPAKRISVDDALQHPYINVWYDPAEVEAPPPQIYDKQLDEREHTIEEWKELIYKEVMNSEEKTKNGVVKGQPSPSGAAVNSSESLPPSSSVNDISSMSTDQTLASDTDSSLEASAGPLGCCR

CAL-27 [30] = test: Induction of apoptosis in human CAL-27 cells assessed as decrease in AKT phosphorylation at S473 residue at 1 uM after 24 hrs by Immunoblot analysis relative to control; type: functional; set-up: scale not given: the % may be the effect or the level left
FaDu = test: Antiproliferative activity against human FaDu cells assessed as reduction in cell viability at 10 uM measured after 72 hrs by Celltiter-Glo luminescent assay; type: functional
CAL-27 [31] = test: Induction of apoptosis in human CAL-27 cells assessed as decrease in AKT phosphorylation at S473 residue at 5 uM after 24 hrs by Immunoblot analysis relative to control; type: functional; set-up: scale not given: the % may be the effect or the level left
CAL-27 [32] = test: Induction of apoptosis in human CAL-27 cells assessed as decrease in AKT phosphorylation at S473 residue at 0.5 uM after 24 hrs by Immunoblot analysis relative to control; type: functional; set-up: scale not given: the % may be the effect or the level left
[33] = AUC (0-infinity) in C57BL/6 mouse at 10 mg/kg, po measured upto 8 hrs by LC-MS/MS analysis; type: ADME, organism-based; set-up: route oral, dose 10 mg/kg, time <=8; settings: C57BL/6, mouse, in vivo
CAL-27 [34] = test: Antiproliferative activity against human CAL-27 cells assessed as reduction in cell viability at 10 uM measured after 72 hrs by Celltiter-Glo luminescent assay; type: functional
[35] = biological target: Ribosomal protein S6 kinase alpha-1 (Homo sapiens, UniProt Q15418); test: Inhibition of RSK1 (unknown origin) in human CAL-27 cells measured after 6 hrs by select screen kinase assay; type: cell-based
CAL-27 [36] = test: Induction of apoptosis in human CAL-27 cells assessed as decrease in AKT phosphorylation at S473 residue at 10 uM after 24 hrs by Immunoblot analysis relative to control; type: functional; set-up: scale not given: the % may be the effect or the level left
Focal adhesion kinase 1 [37] = biological target: T1, Focal adhesion kinase 1; test: Inhibition of FAK (unknown origin) at 1 uM by kinome scan method
[38] = biological target: Dual specificity tyrosine-phosphorylation-regulated kinase 1B (Homo sapiens, UniProt Q9Y463); test: Inhibition of DYRK1B (unknown origin) measured after 6 hrs in presence of ATP by Z'-LYTE assay

SMILES: Cc1[nH]c2ncc3cc2c1-c1cn(nc1C(F)(F)F)CCCC(=O)N(C)Cc1nn(C)c(C#N)c1-3
Activity (CAL-27 [1]): 105%
Activity (CAL-27 [2]): 134%
Activity (CAL-27 [3]): 120%
Activity (CAL-27 [4]): 190%
Activity (CAL-27 [5]): 133%
Activity (CAL-27 [6]): 103%

clearance [7]: 5.9 mL/min/kg
Cmax [8]: 6.4 µM
bioavailability [9]: 12.3%
CL/F [10]: 29.3 mL/min/kg
IC50 [12]: 690 nM
IC50 [13]: 1130 nM
IC50 (Misshapen-like kinase 1): 115 nM
IC50 [15]: 132 nM
Cmax [16]: 34.1 µM
IC50 [18]: 37 nM
IC50 [19]: 61 nM
IC50 (Focal adhesion kinase 1 [21]): 90 nM
IC50 [22]: 80 nM
AUC(0-inf) [23]: 8950 ng·h/mL
half-life [24]: 2.4 h
IC50 [25]: 1620 nM
IC50 [26]: 1100 nM
IC50 [27]: 182 nM
half-life [28]: 1.2 h
IC50 [29]: > 10000 nM
AUC(0-inf) [33]: 5770 ng·h/mL
IC50 [35]: 82 nM
IC50 (Focal adhesion kinase 1 [37]): 210 nM
SMILES: CN1Cc2nn(C)c(C#N)c2-c2cnc3[nH]c(F)c(c3c2)-c2cn(nc2C(F)(F)F)CCCC1=O
Activity (CAL-27 [1]): 58%
Activity (CAL-27 [2]): 93%
Activity (CAL-27 [11]): 56%
Activity (CAL-27 [3]): 104%
Activity (CAL-27 [4]): 540%
Activity (CAL-27 [14]): 49%
Activity (HEK-293T): Non-Toxic
Activity (CAL-27 [17]): 10%
Activity (CAL-27 [20]): 38%
Activity (CAL-27 [30]): 85%
Activity (FaDu): 40%
Activity (CAL-27 [31]): 74%
Activity (CAL-27 [32]): 81%
Activity (CAL-27 [34]): 45%
Activity (CAL-27 [36]): 63%
Activity (CAL-27 [5]): 128%
Activity (CAL-27 [6]): 61%

IC50 [38]: 3050 nM
SMILES: CN1Cc2nn(C)c(C#N)c2-c2cc3c(c[nH]c3nn2)-c2cn(nc2C(F)(F)F)CCCC1=O
